Results as given in US12653914B2, “Compounds for fast and efficient click release” (priority 2019, dated 2026).
Like-named read-outs stand apart in the source and are kept apart here. Where a SMILES comes first, the peptide text is derived from it. [ ]: non-standard residue; d: D form. The star is where a group is joined. Dolaproine = CO[C@@H]([C@@H]1CCCN1)[C@@H](C)C(=O)O; X1 = COC(=O)[C@]1(O)CC/C=C/[C@H](OC(=O)*)CC1; Dil = CC[C@H](C)[C@H](NC)[C@@H](CC(=O)O)OC; X2 = C[C@@H](N*)[C@@H](O)c1ccccc1; NMeV = CN[C@H](C(=O)O)C(C)C

Tests used:
[1] = Second order rate constant, TCO derivatives with tetrazine 2.18, pseudo-first order, UV spectroscopy in MeCN; settings: reaction with 2.18 in MeCN at 20° C.; estimated from k1′
Procedure: Second order rate constant for the reaction between TCO derivatives and tetrazine 2.18 was determined under pseudo-first order conditions in MeCN at 20° C. by UV spectroscopy. A cuvette was filled with MeCN (3 mL) and equilibrated at 20° C. A solution of 2.18 (20 μL, 25 mM in DMSO) was added, followed by a solution of the TCO (5 μL 25 mM in DMSO). The absorption at 540 nm was monitored. The pseudo-first order reaction constant k1′ was calculated from the half-life of the decrease of this absorption, and the second order rate constant k2 was estimated from k1′ and the initial concentration of tetrazine: k2=k1′/c.

[2] = Release of constructs (C^A) from TCO triggers with tetrazines, HPLC-MS/PDA; settings: for Time point and release %: MeCN/PBS
Procedure: In another experiment, the release of TCO triggers was evaluated with a range of tetrazines. The constructs to be released included the drug doxorubicin, and methylamine as a model C^A. TCO-C^A conjugates (10 μL, 25 mM in DMSO) were diluted with MeCN ([…]) and PBS ([…]). Next, a solution of the tetrazine activator (20 μL 25 mM in DMSO) was added, and the release was evaluated by HPLC-MS/PDA. The results in Table 6 show complete C^A release in 5 min from all TCO triggers with all tested activators. Importantly, no release was observed from 1.42 and 1.62 upon reaction with 2.18, which supports Formula (19), wherein an amine being Y^T1, Y^T2 or Y^T3 cannot be bound to a carbonyl.

[3] = cited from earlier work
[4] = Release kinetics of 7-amino-4-methylcoumarin (AMC) in various media, fluorescence; settings: 5 μM 1.14, 7 μM activator 2.18
Procedure: 1.14 was reacted in PBS, DMEM buffer, full cell growth medium (DMEM+10% FBS) or human plasma at a concentration of 5 μM with activator 2.18 (7 μM) in a quartz cuvette while magnetic stirring. The increase of fluorescence due to the release of 7-amino-4-methylcoumarin (AMC) was monitored using a Perkin Elmer LS55 fluorescence spectrometer. […] In contrast, with TCO triggers not of this invention, 2.18 gives low and slow release [Versteegen et al., Angew. Chem. Int. Ed. 2013, 52, 14112-14116, Sarris et al., Chem Eur J 2018, 24, 18075-18081].

[5] = tested on: HT-1080 cells (human fibrosarcoma); experiment: Cell viability, MTT assay; assay type: cell-based; settings: then 94 h, n=3
Procedure: HT-1080 cells (human fibrosarcoma) were added with serial dilutions of the TCO-MMAE prodrug 1.16 (100 μM-0.32 nM) in growth medium and 10 μL of a stock solution of activator 2.18 (50 μM in PBS) in a 96-well plate (n=3). After a 2 h incubation at 37° C., the medium was refreshed and the cells were incubated for 94 more hours.

[6] = Second order rate constants, TCO with tetrazine activators, stopped-flow spectrophotometry in PBS; settings: PBS at 37° C., 25 μM tetrazine, 50 μM TCO
Procedure: Second order rate constants for the reaction of tetrazines activators with 1.13 and 1.71 were determined using a SX20 stopped-flow spectrophotometer from Applied Photophysics. Measurements were performed at 37° C. with 25 μM tetrazine and 50 μM TCO in PBS, in triplicates, monitored at 535 nm. Data was analyzed using GraphPad Prism. Second order rate constants were determined from nonlinear fitting of the absorbance vs. time curves to the second order rate equation. […] Importantly, 2.17 and 2.18 are very reactive, but afford low release yields with TCO triggers that are not part of this invention (i.e. 1.71) [Versteegen et al., Angew. Chem. Int. Ed. 2013, 52, 14112-14116].

[7] = Dye (AF594) release efficiency from TCO-C^A conjugates with tetrazine activators, HPLC endpoint; settings: 25 μM TCO, 50 μM tetrazine, PBS 37° C., 48 h, n = 2, ±1%
Procedure: 1.15 and 1.72 (as control without an Y^T1 group) were reacted at a concentration of 25 μM with various tetrazine activators (50 μM) in PBS (DMSO content <1%) at 37° C. Samples were analyzed by HPLC (UV and fluorescence detection; 10-100% MeCN in water with 2.5 mM NH4OAc, pH 8.4) after 48 h to obtain endpoint data for the overall dye release efficiency (Table 5). […] Importantly, highly reactive tetrazines that normally give low release yields, now give quantitative release. Compare with [Versteegen et al., Angew. Chem. Int. Ed. 2013, 52, 14112-14116, Sarris et al., Chem Eur J 2018, 24, 18075-18081].

[8] = 5 min, tetrazine 2.18, released payload dimethylamine
[9] = 10 min, tetrazine 2.20, released payload doxorubicin

With CN(C)C(=O)O[C@@H]1/C=C/CCN(C(=O)OCC[Si](C)(C)C)CC1 (racemic) [Compound 1.62, 2-(Trimethylsilyl)ethyl (S,E)-4-((dimethylcarbamoyl)oxy)-3,4,7,8-tetrahydroazocine-1(2H)-carboxylate] the k2 [1] was 80 M⁻¹ s⁻¹ and the “release upon reaction with 2.18” value [2] was “no release”.
In the case of CN(C)C(=O)O[C@@H]1/C=C/CCNCC1 (racemic) [Compound 1.63, (S,E)-1,2,3,4,7,8-Hexahydroazocin-4-yl dimethylcarbamate], the “Time point and release %” value [2, 8] is reported as 5 min: 100%.
With CNC(=O)C[C@@H]1CC[C@H](OC(=O)N(C)C)/C=C/C[C@H]1O (relative stereo) [Compound 1.70, (rel-1S,5R,6S,E)-5-Hydroxy-6-(2-(methylamino)-2-oxoethyl)cyclooct-2-en-1-yl dimethylcarbamate] the “Time point and release %” value [2, 8] was 5 min: 100%.
With CN(C)C(=O)OC[C@H]1CC[C@H](OC(=O)N(C)C)/C=C/C[C@H]1N (stereo in doubt) [Compound 1.54, (1S,5R,6S,E)-5-Amino-6-(((dimethylcarbamoyl)oxy)methyl)cyclooct-2-en-1-yl dimethylcarbamate] the k2 [1] was 38 M⁻¹ s⁻¹ and the “Time point and release %” value [2, 8] was 5 min: 50%.
For c1ccc(-c2nnc(-c3ccccn3)nn2)nc1 [3,6-bis-(2-pyridyl)-1,2,4,5-tetrazine], the click release yield ([3]; PBS/MeCN (3:1)) is listed as 7% and the click release yield ([3]; serum) is listed as 12%.
In the case of Cc1nnc(C)nn1 [3,6-bis-methyl-1,2,4,5-tetrazine], the maximum release yield ([3]; release typically takes several hours) is given as 80-90%.
With COC(=O)[C@]1(O)CC/C=C/[C@H](OC(=O)Nc2ccc3c(C)cc(=O)oc3c2)CC1 [Compound 1.14, Methyl(1S,4E,6R)-1-hydroxy-6-{[(4-methyl-2-oxo-2H-chromen-7-yl)carbamoyl]oxy}cyclooct-4-ene-1-carboxylate] the “time to reach 100% AMC release” value ([4]; PBS and medium (neat or containing FBS)) was 1 to 3 min and the “time to complete AMC release” value ([4]; human plasma) was “approximately 20 min”.
In the case of CC[C@H](C)[C@@H]([C@@H](CC(=O)N1CCC[C@H]1[C@H](OC)[C@@H](C)C(=O)N[C@H](C)[C@@H](O)c1ccccc1)OC)N(C)C(=O)[C@@H](NC(=O)[C@H](C(C)C)N(C)C(=O)O[C@H]1/C=C/CC[C@@](O)(C(=O)OC)CC1)C(C)C [Compound 1.16, TCO-MMAE] (X1-[NMeV]V[Dil][Dolaproine]-X2), the IC50 ([5]; HT-1080, 1.16 alone (no activator), 2 h incubation) is reported as 1.3 µM and the IC50 ([5]; HT-1080, in the presence of activator 2.18, 2 h incubation) is reported as 0.0003 µM.
With COC(=O)[C@]1(O)CC/C=C/[C@H](OC(=O)N(C)c2ccc([C@@H](O)C(=O)O)cc2)CC1 [Compound 1.19, 2-Hydroxy-2-{4-[({[(1R,2E,6S)-6-hydroxy-6-(methoxycarbonyl)cyclooct-2-en-1-yl]oxy}carbonyl)(methyl)amino]phenyl}acetic acid] the k2 [1] was 134 M⁻¹ s⁻¹ and the “Time point and release %” value ([2]; 5 min, tetrazines 2.1, 2.3, 2.18 (for all tested activators), released payload 2-hydroxy-2-[4-(methylamino)phenyl]acetic acid) was 5 min: 100%.
COC(=O)[C@H]1CC[C@@H](O)/C=C/C[C@@H]1NC(=O)OCC[Si](C)(C)C [Compound 1.40, Methyl (1S,2S,4E,6R)-6-hydroxy-2-({[2-(trimethylsilyl)ethoxy]carbonyl}amino)cyclooct-4-ene-1-carboxylate] gave a k2 [1] of 39 M⁻¹ s⁻¹.
With COC(=O)[C@H]1CC[C@@H](OC(=O)N(C)C)/C=C/C[C@@H]1NC(=O)OCC[Si](C)(C)C [Compound 1.42, Methyl (1S,2S,4E,6R)-6-((dimethylcarbamoyl)oxy)-2-(((2-(trimethylsilyl)ethoxy)carbonyl)amino)cyclooct-4-ene-1-carboxylate] the “release upon reaction with 2.18” value ([2]; tetrazine 2.18, amine bound to a carbonyl (protected)) was “no release”.
In the case of COC(=O)[C@H]1CC[C@@H](OC(=O)N(C)C)/C=C/C[C@@H]1N [Compound 1.43, Methyl (1S,2S,4E,6R)-2-amino-6-((dimethylcarbamoyl)oxy)cyclooct-4-ene-1-carboxylate], the k2 [1] is reported as 27 M⁻¹ s⁻¹ and the “Time point and release %” value ([2]; 5 min, tetrazines 2.1, 2.3, 2.15, 2.17, 2.18 (for all tested activators), released payload dimethylamine) is reported as 5 min: 100%.
With COC(=O)[C@H]1CC[C@@H](OC(=O)N[C@H]2C[C@@H](OC3C[C@](O)(C(=O)CO)Cc4c(O)c5c(c(O)c43)C(=O)c3c(OC)cccc3C5=O)O[C@@H](C)[C@H]2O)/C=C/C[C@@H]1N (some centres unmarked) [Compound 1.45, TCO-doxorubicin] the “Time point and release %” value [2, 9] was 10 min: 100%.
In the case of C[Si](C)(C)CCOC(=O)N[C@H]1C/C=C/[C@H](O)CC[C@H]1CO [Compound 1.51, 2-(trimethylsilyl)ethyl N-[(1S,3E,5R,8R)-5-hydroxy-8-(hydroxymethyl)cyclooct-3-en-1-yl]carbamate], the k2 [1] is reported as 104 M⁻¹ s⁻¹.
With C[Si](C)(C)CCOC(=O)N1CC/C=C/C(O)CC1 (centres unmarked) [Compound 1.60, 2-(Trimethylsilyl)ethyl (E)-4-hydroxy-3,4,7,8-tetrahydroazocine-1(2H)-carboxylate] the k2 [1] was 277 M⁻¹ s⁻¹.
For COc1cccc2c1C(=O)c1c(O)c3c(c(O)c1C2=O)C[C@@](O)(C(=O)CO)C[C@@H]3O[C@@H]1C[C@H](NC(=O)O[C@@H]2/C=C/CCNCC2)[C@H](O)[C@H](C)O1 [Compound 1.65, TCO-doxorubicin], the “Time point and release %” value [2, 9] was 10 min: 100%.
In the case of O=C(NCCOCCOCCOCCO)O[C@H]1/C=C/CCCCC1 [Compound 1.71, reference compound], the k2 ([6]; activator 2.12) is reported as 280 ± 30 M⁻¹ s⁻¹, the k2 ([6]; activator 2.17) is reported as 10300 ± 1200 M⁻¹ s⁻¹ and the k2 ([6]; activator 2.18) is reported as 9300 ± 500 M⁻¹ s⁻¹. For the same compound, the k2 ([6]; activator 2.9) was 80 ± 10 M⁻¹ s⁻¹.
For TCO-PEG2-AF594 [Compound 1.15], the “Release (%) of fluorescent dye (AF594)” value ([7]; activator 2.10) was 99%, the “Release (%) of fluorescent dye (AF594)” value ([7]; activator 2.11) was 99% and the “Release (%) of fluorescent dye (AF594)” value ([7]; activator 2.12) was 92%. For the same compound, the “Release (%) of fluorescent dye (AF594)” value ([7]; activator 2.13) was 99%, the “Release (%) of fluorescent dye (AF594)” value ([7]; activator 2.14) was 99% and the “Release (%) of fluorescent dye (AF594)” value ([7]; activator 2.16) was 92%. For the same compound, the “Release (%) of fluorescent dye (AF594)” value ([7]; activator 2.17) was 96%, the “Release (%) of fluorescent dye (AF594)” value ([7]; activator 2.18) was 99% and the “Release (%) of fluorescent dye (AF594)” value ([7]; activator 2.19) was 99%. The “Release (%) of fluorescent dye (AF594)” value ([7]; activator 2.6) was 93% and the “Release (%) of fluorescent dye (AF594)” value ([7]; activator 2.9) was 98%.
